Measured values as given in patent US20200306313A1, “METHODS AND COMPOSITIONS FOR NON-CYTOTOXIC STEM CELL TRANSPLANTATION” (THE BOARD OF REGENTS OF THE UNIVERSITY OF TEXAS SYSTEM, priority 2014, published 2020).

Key:
[1] = system: TH-positive neurons in the SNpc; assay: Stereology of TH-positive neurons in SNpc after MPTP; details: MPTP-alone regimen
Method: (§1) Eight weeks after transplantation, recipient mice were injected with MPTP to induce dopaminergic neurodegeneration. MPTP dissolved in saline was injected subcutaneously into MSP-GDNF and MSP-GFP mice as follows: 15 mg/kg free base MPTP on day 1, 25 mg/kg on day 2, and 30 mg/kg on days 3-7. Control mice were treated with saline following the same regimen. Nine weeks after the last injection of MPTP or saline, MSP-GFP mice were sacrificed to evaluate the differentiation of gene-modified macrophages into microglia and their recruitment to substantia nigra.
Three or nine weeks after the last MPTP or saline injection, recipient mice were sacrificed and the neuroprotective effect of macrophage-mediated GDNF delivery on the nigrostriatal dopaminergic system was assessed by quantitative analysis of TH-positive neurons in the substantia nigra pars compacta (SNpc), as well as the density of TH-positive terminals in the striatum. […] In addition, total number of Nissl-stained neurons in the SNpc was counted for each treatment group to make sure that GDNF treatment indeed prevented actual cell death (FIG. 8).

[2] = system: substantia nigra microglia; assay: Recruitment of bone marrow-derived microglia to substantia nigra after MPTP; assay type: in vivo; details: MSP-GFP mice nine weeks after the last injection of MPTP
Method: as §1

[3] = system: TH-positive cells in the SNpc; assay: Continuous MPTP osmotic minipump infusion, TH-positive and GFP cells in SNpc; assay type: in vivo, mice; details: continuous infusion 5 mg MPTP/kg daily for 28 days
Method: FIGS. 7A-B. Plots of quantitative stereologic data illustrating TH-positive cells in the SNpc from mice that were continuously treated with saline (n=3) or 5 mg MPTP/kg daily (n=2) for 28 days (FIG. 7A). Semi-quantitative analysis of GFP-positive cells in the nigra of mice that were continuously treated with saline (n=3) or 5 mg MPTP/kg daily (n =2) for 28 days. Each bar represents the mean±standard error of the total number of GFP-positive cells per five representative sections of substantia nigra pars compacta per animal (FIG. 7B).
The minipumps were implanted subcutaneously on the upper back of the animal. The minipumps delivers saline or MPTP at a flow rate 0.35μ1/hr for 28 days. The concentration of MPTP solution was adjusted in such a way that the animals receive or 5 mg MPTP/kg daily for 28 days. On day 30 (after the start of MPTP or saline) the animals were killed and the brains were analyzed for the loss of TH-posive cells and the recruitment bone marrow derived GFP cells in the SNpc.

mice = assay: Motor coordination tests in MPTP-only model; assay type: in vivo; details: MPTP-treated group vs saline-treated controls
Text: MPTP/probenecid mouse model. […] In addition, spontaneous recovery of the nigrostriatal system that is typically observed with this regimen places limits on detection of changes in motor coordination. Mice were subjected to tests for motor coordination, including rotarod test, gait test/foot print analysis, pole test, beam walking test, and grid test.

[4] = without irradiation and chemotherapy; cited from earlier work
MitoPark™ mice = assay: Spontaneous locomotor activity of MitoPark mice; assay type: in vivo
Text: Vertical movements declined earlier and faster than horizontal movements (data not shown), modeling the early occurrence of axial postural instability in PD. […] The MitoPark™ mice began to lose weight from ˜20 weeks and died at 29-33 weeks of age, at which point the majority of substantia nigra DA neurons had been lost.

[5] = cited from earlier work

CN1CC=C(c2ccccc2)CC1 [MPTP, 1-methyl-4-phenyl-1,2,3,6-tetrahydropyridine]
reduction in TH-positive cells [1]: approximately 50% | proportion of total microglia (Iba1-positive) in the nigra that were bone marrow derived [2]: 47% | increase in the number of bone marrow derived GFP cells in the SNpc [3]: four-fold | loss of TH-positive cells in the SNpc [3]: approximately 31% | motor coordination (rotarod, gait/foot print, pole, beam walking, grid test) (mice): None of these tests showed statistically significant differences

c1cc(CN2CCCNCCNCCCNCC2)ccc1CN1CCCNCCNCCCNCC1 [AMD3100]
effectiveness as conditioning regimen [4]: not to be sufficiently effective

N[C@@H](Cc1ccc(O)c(O)c1)C(=O)O [L-DOPA]
locomotor deficits (MitoPark™ mice): transiently reversed

B1: glial cell line derived neurotrophic factor (protein, UniProt P39905 78-211, looked up)
Glial cell line-derived …: SPDKQMAVLPRRERNRQAAAANPENSRGKGRRGQRGKNRGCVLTAIHLNVTDLGLGYETKEELIFRYCSGSCDAAETTYDKILKNLSRNRRLVSDKVGQACCRPIAFDDDLSFLDDNLVYHILRKHSAKRCGCI
side effects ([5]; direct brain infusion): side effects, including allodynia and weight loss | cerebellar toxicity ([5]; high doses (100 μg/day) intraputamenal): significant cerebellar Purkinje cell death
